Measurements published in PubChem BioAssay AID1159563 (GlaxoSmithKline (GSK), 2015).
Calls of active or inactive are those of the source. How the calls were made is not given here.

tested on: HepG2 cytotoxicity; assay: HepG2 cell cytotoxicity, cytotoxicity control (AID 1159563)

| SMILES | IC50 |
| --- | --- |
| O=C(Nc1ccc(Br)c(Cl)c1)Nc1ccc2c(c1)OCO2 | > 100 µM (inactive) |
| N#Cc1ccc(S(=O)(=O)N2CCN(Cc3cccc(-c4ccncc4)c3)CC2)cc1 | > 100 µM (inactive) |
| N#Cc1cccc(CNc2ccc(-c3cnn(CC4CC4)c(=O)c3C#N)cc2)c1 | > 100 µM (inactive) |
| COc1ccc(NS(=O)(=O)c2cc(NC(=O)c3ccc([N+](=O)[O-])s3)ccc2OC)cc1 | > 100 µM (inactive) |
| Cc1cc(C#N)c([N+](=O)[O-])cc1Br | 32 µM |
| O=C(c1cccc(Nc2ncc(-c3ccc4c(c3)OCO4)cn2)c1)N1CCSC1 | 10 µM |
| CCN(Cc1ccncc1)Cc1ccc(NC(=O)c2cc(-c3ccc(F)cc3)n[nH]2)cc1 | > 100 µM (inactive) |
| Cc1cc(NC(=O)C2CC2)ccc1OC1CCN(Cc2ccco2)CC1 | 50 µM |
| CCCNC(=O)Nc1cccc(-c2nc3ncccc3o2)c1 | > 100 µM (inactive) |
| Cc1cc(N2CCc3ccccc3C2)nc(Nc2ccc(S(=O)(=O)N3CCOCC3)cc2)n1 | > 100 µM (inactive) |
| O=C(Nc1cccc(S(=O)(=O)Nc2ccc(Br)cc2)c1)c1ccc([N+](=O)[O-])s1 | 16 µM |
| O=C(NCCc1ccccc1Cl)c1cccn1-c1cccnc1 | > 100 µM (inactive) |
| CCCn1c(NC(=O)Cc2ccc(Cl)cc2)nc2ccccc21 | > 100 µM (inactive) |
| Cc1nc(N2CCC(C(=O)N3CCC(O)(c4cccnc4)CC3)CC2)nc2ccc(C(C)C)cc12 | 79 µM |
| OCC1CCCCN1c1cc(-c2ccccn2)nc(Nc2ccccc2)n1 (stereo unspecified) | 32 µM |
| CC(C)c1nn(-c2nc(N)nc(-c3ccccn3)n2)c(N)c1C1CCCCC1 | 20 µM |
| COc1ccc(Nc2nc(NC3CCC(O)CC3)ncc2Br)c(C(N)=O)c1 (stereo unspecified) | > 100 µM (inactive) |
| c1cc(-c2ncc(-c3ccn[nH]3)s2)ccn1 | > 100 µM (inactive) |
| COc1ccc(C(=O)Nc2cc(C(F)(F)F)ccc2N2CCOCC2)c(OC)c1 | > 100 µM (inactive) |
| O=C(NCCc1csc(-c2ccc(F)cc2)n1)c1cccs1 | > 100 µM (inactive) |
| O=C(CN1CCN(c2ccccn2)CC1)Nc1cc(S(=O)(=O)N2CCCCCC2)ccc1Cl | > 100 µM (inactive) |
| CCS(=O)(=O)Nc1ccc(C2=NN(C(=O)c3cccs3)C(c3ccccc3OC)C2)cc1 (stereo unspecified) | > 100 µM (inactive) |
| O=C1c2cnc(N3CCCC3)nc2CN1c1ccc2c(c1)OCO2 | > 100 µM (inactive) |
| COc1cccc(CN(C)Cc2nc(N)c3c(C)c(C)sc3n2)c1 | 40 µM |
| c1ccc2sc(Nc3nc4ncccc4[nH]3)nc2c1 | 20 µM |
| O=C(c1ccc(O)c(Cl)c1)N1CCN(c2cnccn2)CC1 | > 100 µM (inactive) |

| SMILES | IC50 |
| --- | --- |
| CN(C)CCN(C)Cc1ccc(Cl)cc1NS(=O)(=O)c1ccc(Cl)c(Cl)c1 | 32 µM |
| Cc1ccc(C)c(-n2nnnc2Sc2nc([N+](=O)[O-])nn2C)c1 | > 100 µM (inactive) |
| O=c1[nH]cnc2c([C@@H]3O[C@H](CO)[C@@H](O)[C@H]3O)[nH]nc12 | > 100 µM (inactive) |
| NC(=O)c1cc(NC(=O)c2ccccc2COc2ccccc2)ccc1Cl | > 100 µM (inactive) |
| C[C@@H](Oc1cc(-n2cnc3ccc(CC(O)CO)cc32)sc1C(N)=O)c1ccccc1Cl (stereo partly specified) | > 100 µM (inactive) |
| CCC(CC)C(=O)Nc1ccc(-c2nnc(-c3ccc(OC)cc3)o2)cc1 | > 100 µM (inactive) |
| CNc1nc(C)nc(N2CCc3cc(C(=O)NCc4ccc(-c5nccn5C)cc4Cl)ccc32)n1 | 32 µM |
| Cc1nn(C)c(Cl)c1CN(Cc1cccnc1)Cc1ccsc1 | > 100 µM (inactive) |
| Cc1cc(Br)sc1CNCCCNc1cc(=O)c2ccccc2[nH]1 | 40 µM |
| CNS(=O)(=O)c1ccccc1Nc1nc(Nc2cc(C)nn2C)ncc1Cl | 4 µM |
| CC1CN(Cc2ccc(C#N)cc2)CCN1c1ccc(NC(=O)c2ccccc2F)cc1 (stereo unspecified) | > 100 µM (inactive) |
| Cc1[nH]nc2c1C(c1ccc(OCc3ccccc3F)cc1)SCC(=O)N2 (stereo unspecified) | > 100 µM (inactive) |
| O=C(CN(Cc1ccccn1)Cc1ccccn1)NCc1ccc(-c2csnn2)cc1 | 25 µM |
| C=CCOCC1Cn2nc([N+](=O)[O-])nc2O1 (stereo unspecified) | > 100 µM (inactive) |
| CCc1cccc(CC)c1-n1c(SCC(=O)NC(=O)NCc2ccco2)nnc1-c1cccnc1 | > 100 µM (inactive) |
| O=C(Cc1ccccc1)Nc1[nH]nc2sc(C(=O)NC3CCCC3)cc12 | 50 µM |
| CN1CCCN(C(=O)c2ccc(N3CCCC3)cc2Cl)CC1 | > 100 µM (inactive) |
| CNc1cc(Cn2c(C(=O)c3cc(C)cc(Cl)c3)c(C(C)C)c(=O)[nH]c2=O)ccn1 | > 100 µM (inactive) |
| COc1ccc(C(C)(C)C)cc1S(=O)(=O)n1ccnc1 | > 100 µM (inactive) |
| Cc1c([N+](=O)[O-])c(C(=O)Nc2sc3c(c2C#N)CCC(C)C3)nn1C (stereo unspecified) | > 100 µM (inactive) |
| Cc1cc(C)n(-c2nc(NC(C)(C)C)nc(N3CCOCC3)n2)n1 | 100 µM |
| CN(C)S(=O)(=O)c1cccc(C(=O)Nc2nc(-c3ccccn3)cs2)c1 | > 100 µM (inactive) |
| COc1cccc(CCNC(=O)C(c2cn[nH]c2)N2CCN(c3ccc(Cl)cc3)CC2)c1 (stereo unspecified) | 50 µM |
| O=C(Nc1nc(-c2ccccn2)cs1)N1C[C@H]2C[C@@]2(c2ccccc2)C1 | 25 µM |
| CC(C)(C)Nc1nc(-c2ccccn2)nc2ccccc12 | 20 µM |
| NC(=O)c1cc(F)ccc1Nc1nc(NC2CCC(O)CC2)ncc1Br (stereo unspecified) | 50 µM |

| SMILES | IC50 |
| --- | --- |
| Cc1nc(C(=O)Nc2ccc3c(c2)OCO3)nn1-c1ccc(F)cc1 | > 100 µM (inactive) |
| O=C(COc1ncnc2cc([N+](=O)[O-])ccc12)NC(=O)NC1CCCCC1 | > 100 µM (inactive) |
| Cc1cc(C)nc(N2CCC(N(Cc3cccnc3)C(=O)c3cccc(C#N)c3)CC2)n1 | > 100 µM (inactive) |
| COc1cccc(S(=O)(=O)Nc2ccc3c(c2)CC(N2CCC(NC(=O)C4CC4)CC2)C3)c1 (stereo unspecified) | > 100 µM (inactive) |
| O=C(NCC(c1cccs1)N1CCOCC1)c1ccc([N+](=O)[O-])o1 (stereo unspecified) | 20 µM |
| O=C(NCCc1cccnc1)c1csc(-c2ccccc2)n1 | > 100 µM (inactive) |
| O=C(Nc1cccc(Cl)c1)Nc1ccc([N+](=O)[O-])cc1Cl | 32 µM |
| CC(Cn1ccnc1)NC(=O)COc1ccc(Cl)c(Cl)c1 (stereo unspecified) | > 100 µM (inactive) |
| CC(=O)Nc1ccc(-c2ccnc(Nc3cccc(C#N)c3)n2)cc1 | > 100 µM (inactive) |
| COc1cnc2ccc(=O)n(CCN3CCC(NC/C=C/c4cc(F)ccc4F)CC3)c2c1 | 63 µM |
| N#Cc1nc(C=Cc2ccccc2)oc1NCc1cccnc1 | > 100 µM (inactive) |
| CN(C)c1ncc(-c2cncn2CCOc2ccc(Cl)cc2)cn1 | > 100 µM (inactive) |
| O=C(CN(Cc1ccccn1)Cc1ccccn1)NCc1csc(-c2cccs2)n1 | > 100 µM (inactive) |
| c1ccc(-c2nc(NC3CCCC3)c3ccccc3n2)nc1 | 16 µM |
| O=C(NCc1ccncc1)c1ccccc1N1CCCN(C(=O)Cc2ccc(F)c(F)c2)CC1 | > 100 µM (inactive) |
| CCN(CC)S(=O)(=O)c1ccc(Cn2nc(C(=O)Nc3ccncn3)c3ccccc32)cc1 | > 100 µM (inactive) |
| Cc1cc(Nc2cc(C3CC3)[nH]n2)nc(N2CCCC2)n1 | 32 µM |
| Cn1cncc1CN1CCC2(CC1)COC(Cc1ccccc1)C2 (stereo unspecified) | > 100 µM (inactive) |
| Cc1cc(Oc2cc(Cl)c(Cl)cc2Cl)n2ncnc2n1 | 32 µM |
| O=C(CN1CCC2(O)CCCCC2C1c1ccc2c(c1)OCO2)Nc1ccc(Cl)cc1Cl (stereo unspecified) | > 100 µM (inactive) |
| CN(Cc1ccc(F)cc1)c1ccc(OCC(=O)N2CCCCC2c2cccnc2)nn1 (stereo unspecified) | > 100 µM (inactive) |
| CCN(CC)S(=O)(=O)c1ccc(OC)c(NC(=O)c2ccc([N+](=O)[O-])s2)c1 | > 100 µM (inactive) |
| Cn1nccc1-c1cc(OC(CN)c2ccccc2)cnc1-c1ccco1 (stereo unspecified) | 50 µM |
| NS(=O)(=O)c1ccc(CNC(=O)c2ccc([N+](=O)[O-])s2)cc1 | 16 µM |
| c1ccc(CCNCc2cncc3nc(-c4cnccn4)n(C4CCCCC4)c23)cc1 | > 100 µM (inactive) |
| CC(C)(C)C(Cn1ccnc1)NC(=O)c1ccc2nc(C3CC3)oc2c1 (stereo unspecified) | > 100 µM (inactive) |

| SMILES | IC50 |
| --- | --- |
| COc1ccc(-c2nc3ccncc3c(=O)n2CCOc2ccccc2)cc1 | > 100 µM (inactive) |
| CN(C(=O)Nc1ccc2c(c1)CCN(C1CCC1)CC2)c1ccc(C#N)cc1 | > 100 µM (inactive) |
| CN(C)c1ccc(N)cc1CN(CC1CCCO1)S(C)(=O)=O (stereo unspecified) | > 100 µM (inactive) |
| CC(C)COC(=O)Nc1ccc(N2CCC(CNS(=O)(=O)c3ccccc3)CC2)c(F)c1 | > 100 µM (inactive) |
| CCOc1ccc(NC(=O)C=Cc2ccc(CC)o2)cc1 | 79 µM |
| O=C(Nc1nc(-c2ccccn2)cs1)c1ccccc1-n1cnnn1 | 1.6 µM |
| Cc1nc2c(-c3cccs3)c(C)nn2c(NCCO)c1C | > 100 µM (inactive) |
| COCc1cc(Nc2cccc(Cl)c2)nc(-c2ccccn2)n1 | 40 µM |
| O=C(CC1(O)C(=O)N(Cc2ccccc2)c2ccc(Br)cc21)c1cccnc1 (stereo unspecified) | 63 µM |
| COc1cc(Cl)c(C)cc1NC(=O)c1ccc([N+](=O)[O-])s1 | 32 µM |
| CCOC(=O)c1cn[nH]c1S(=O)(=O)N1CCC1c1ccccc1 (stereo unspecified) | > 100 µM (inactive) |
| Cc1nc2c(-c3ncn[nH]3)cc(NC(=O)Cc3ccccc3)cn2c1C | 16 µM |
| Cc1nn(-c2ccccc2)nc1CNC(=O)CN(Cc1ccccn1)Cc1ccccn1 | > 130 µM (inactive) |
| COc1ccc(-c2cc(C)no2)cc1S(=O)(=O)Nc1ccc(F)c(Cl)c1 | 79 µM |
| CC(C)CC(=O)Nc1cc(C2CC2)nn1-c1nc2c(c(=O)[nH]1)CCCC2 | > 100 µM (inactive) |
| COC(=O)c1ccc(-c2cnc3ccc(NCc4ccccn4)nn23)cc1 | 100 µM |
| O=C(CN(Cc1ccccn1)Cc1ccccn1)NCc1ccc2c(c1)OCO2 | > 160 µM (inactive) |
| CN(Cc1ccc(C(N)=O)cc1)C(c1ccc(F)cc1)c1cccnc1 (stereo unspecified) | > 100 µM (inactive) |
| COc1ccc(CNc2cc(C3CC3)nc(-c3nccn3C)n2)cc1 | 25 µM |
| O=C(Cc1ccccc1)Nc1ccccc1C(=O)Nc1nccs1 | > 100 µM (inactive) |
| O=S(=O)(NCC(c1cccnc1)N1CCN(c2ccccc2F)CC1)c1ccc(F)cc1 (stereo unspecified) | > 100 µM (inactive) |
| Cn1nc(-c2ccc(NC(=O)Cc3ccccc3Cl)cc2)c2c(N)ncnc21 | > 100 µM (inactive) |
| CCn1c(-c2nonc2N)nc2c([C@@H](C)O)ncc(O[C@H](CN)c3ccccc3)c21 | 79 µM |
